Measurements as given in US20120015961A1, “ISOTHIOUREA DERIVATIVES OR ISOUREA DERIVATIVES HAVING BACE1 INHIBITORY ACTIVITY” (SHIONOGI & CO., LTD., priority 2009, published 2012).

How the values were obtained:
Recombinant human BACE1 = biological target: T1, Recombinant human BACE1 (Homo sapiens, UniProt P56817); assay: Assay of BACE1 inhibiting activity; type: biochemical; details: 50% inhibitory concentration against enzymatic activity, pH 5.0, 30° C., 3 hours
T1 construct: purchased R&D Systems
Method: 48.5 μL of substrate peptide solution (Biotin-XSEVNLDAEFRHDSGC-Eu: Xεε-amino-n-capronic acid, Eu=Europium cryptate) was added to each well of 96-hole half-area plate (a black plate: Costar Corporation), and after addition of 0.5 μl of the test compound (dissolved in […]) and 1 μl of Recombinant human BACE1 (R&D Systems), the reaction mixture was incubated at 30° C. for 3 hours. The substrate peptide was synthesized by reacting Cryptate TBPCOOH mono SMP (CIS bio international) with Biotin-XSEVNLDAEFRHDSGC (Peptide Institute, Inc.). The final concentrations of the substrate peptide and Recombinant human BACE1 were adjusted to 18 nM and 7.4 nM respectively, and the reaction was performed in sodium acetate buffer (50 mM sodium acetate, pH 5.0, 0.008% Triton X-100). After the completion of reaction, 50 μl of 8.0 μg/ml Streptavidin-XL665 (CIS bio international) dissolved in phosphate buffer (150 mM K2HPO4—KH2PO4, pH 7.0, 0.008% Triton X-100, 0.8 M KF) was added to each well and left stand at 30° C. for an hour. Then, fluorescence intensity was measured (excitation wavelength: 320 nm, measuring wavelength: 620 nm and 665 nm) using Wallac 1420 multilabel counter (Perkin Elmer life sciences). Enzymatic activity was determined from counting ratio of each wavelength (10,000×Count 665/Count 620) and 50% inhibitory concentration against the enzymatic activity was calculated.

[1] = test system: Neuroblastoma SH-SY5Y cells (SH/APPwt) with human wild-type β-APP excessively expressed; assay: Measurement of β-amyloid (Aβ) production inhibitory effect in cell; type: cell-based; details: Homo sapiens, SH-SY5Y, 24 h, amount needed to inhibit Aβ production by 50%, 24 hours incubation, Amyloid β1-40 HTRF
Method: Neuroblastoma SH-SY5Y cells (SH/APPwt) with human wild-type β-APP excessively expressed therein were prepared at 8×10^5 cells/mL, and 150 μl portions thereof were inoculated into each well of a 96-well culture plate (Falcon). The cells were cultured for 2 hours at 37° C. in a 5% gaseous carbon dioxide incubator. Then, a solution which had been preliminarily prepared by adding and suspending the test compound (DMSO (dimethyl sulfoxide) solution) so as to be 2 μl/50 μl medium was added to the cell sap. Namely, the final DMSO concentration was 1%, and the amount of the cell culture was 200 μl. After the incubation was performed for 24 hours from the addition of the test compound, 100 μl of the culture supernatant was collected from each fraction. The amount of the Aβ in each fraction was measured.
The […] was measured as follows. 10 μl of a homogeneous time resolved fluorescence (HTRF) measurement reagent (Amyloid β1-40 peptide; IBA Molecular Holding, S.A.) and 10 μl of the culture supernatant were put into a 384-well half area microplate (black microplate, Costar) and mixed with each other, and then left standing overnight at 4° C. while the light was shielded. Then, the fluorescence intensity (excitation wavelength: 337 nm, measurement wavelength: 620 nm and 665 nm) was measured with a Wallac 1420 multilabel counter (Perkin Elmer life sciences). The Aβ amount was determined from the count rate at each measurement wavelength (10000×Count 665/Count 620), and the amount needed to inhibit Aβ production by 50% (IC50) was calculated from at least six different dosages.

hERG channel = biological target: T2, hERG channel (Homo sapiens, UniProt Q12809); assay: hERG test (whole-cell patch clamp); type: cell-based; details: HEK293 cells that express hERG, 5 μM test compound for 7 minutes, peak tail current, read-out: Inhibition Rate (%)
T2 construct: expressed in transfected cells; host or cells: HEK293
Method: As risk assessment for QT prolongation in vitro, the action on delayed rectifier potassium current was studied using a HEK293 cell with a human delayed potassium ether-a-go-go related gene (hERG) channel expressed therein.
A cell was maintained at a membrane potential of −80 mV, then +50 mV of a depolarizing stimulus (2 seconds) was applied to the cell, further −50 mV of a repolarizing stimulus (2 seconds) was applied thereto and the induced peak tail current was measured by a whole-cell patch clamp technique. 5 μM of the test compounds was applied to the cells for 7 minutes, the inhibition rate before application of the test compound was calculated, and it was compared to the rate of vehicle group (0.5% dimethylsulfoxide solution).

CYP3A4 = CYP3A4 (Homo sapiens, UniProt P08684); assay: CYP3A4 fluorescent MBI test; type: in vitro ADME; set-up: host or cells: E. coli; details: (IC50 without pre reaction) − (IC50 with pre reaction), pre-reaction 0 or 30 minutes
Method: The CYP3A4 fluorescent MBI test is a test to examine enhancement of CYP3A4 inhibition by metabolic reaction of the compound. Here, E. coli-expressing CYP3A4 was used as an enzyme, and a reaction wherein 7-benzyloxy trifluoromethylcumarin (BFC) was debenzylated by the CYP3A4 enzyme into a fluorescent metabolite 7-hydroxytrifluoromethylcumarin (HFC) was employed as an indicator reaction. The reaction conditions were as follows.
Substrate: 5.6 μM/L 7-BFC
Pre-reaction time: 0 or 30 minutes
Reaction time: 15 minutes
Reaction temperature: 25° C. (room temperature)
CYP3A4 content (E. coli-expressing enzyme): 62.5 pmol/mL at pre-reaction, 6.25 pmol/mL at reaction (10-fold diluted)
Test compound concentration: 0.625, 1.25, 2.5, 5, 10, and 20 μM (six different concentrations).
The enzyme and a test compound solution were added to a K-Pi buffer (pH 7.4) in the aforementioned amounts for the pre-reaction so that a pre-reaction solution was prepared, and this solution was put into a 96-well microplate. Part of this solution was transferred to another 96-well microplate such that it was diluted with the substrate and the K-Pi buffer to get a 10-fold diluted solution. NADPH, which is a coenzyme, was added so as to trigger the indicator reaction (without pre-reaction). As the reaction proceeded for a predetermined time period, acetonitrile/0.5 M Tris (tris hydroxyaminomethane)=4/1 was added to terminate the reaction. NADPH was also added to the residual pre-reaction solution so as to trigger the pre-reaction (with pre-reaction). As the pre-reaction proceeded for a predetermined time period, part of the solution was transferred to another microplate so that the solution was diluted with the substrate and the K-Pi buffer to get a 10-fold diluted solution, and then the indicator reaction was triggered. As the reaction proceeded for a predetermined time period, acetonitrile/0.5 M Tris (tris hydroxyaminomethane)=4/1 was added so as to terminate the reaction. With respect to each of the microplates on which the indicator reaction was performed, the fluorescence value of the metabolite 7-HFC was measured with a fluorescence plate reader (Ex=420 nm, Em=535 nm).
Control (100%) was prepared by adding only DMSO, which was used as a solvent to dissolve the drug, to the reaction system. The remaining activity (%) at each concentration after adding the test compound solution was calculated, and the IC50 values of without pre reaction and with pre reaction were calculated by the formula: y=A+((B−A)/(1+((C/x)^D))) using XLfit. The IC50 shift value was calculated by the formula: (the IC50 value of without pre reaction)−(the IC50 value of with pre reaction).

Solubility test = type: physicochemical; details: JP-I medium with 2% DMSO, pH 1.2, simulated gastric fluid, kinetic from dmso stock, turbidity after 4 hours
Method: A 2-fold dilution series (12 points) of a 10 mM solution of a test compound in DMSO was added to a medium (JP-I, JP-II) (2%), and solubility was assessed by 3 stages (High; >40 μM, Medium; 3-40 μM, Low; <3 μM) from a turbidity after 4 hours (crystallization information).

CYP3A4, sequence (P08684 whole entry): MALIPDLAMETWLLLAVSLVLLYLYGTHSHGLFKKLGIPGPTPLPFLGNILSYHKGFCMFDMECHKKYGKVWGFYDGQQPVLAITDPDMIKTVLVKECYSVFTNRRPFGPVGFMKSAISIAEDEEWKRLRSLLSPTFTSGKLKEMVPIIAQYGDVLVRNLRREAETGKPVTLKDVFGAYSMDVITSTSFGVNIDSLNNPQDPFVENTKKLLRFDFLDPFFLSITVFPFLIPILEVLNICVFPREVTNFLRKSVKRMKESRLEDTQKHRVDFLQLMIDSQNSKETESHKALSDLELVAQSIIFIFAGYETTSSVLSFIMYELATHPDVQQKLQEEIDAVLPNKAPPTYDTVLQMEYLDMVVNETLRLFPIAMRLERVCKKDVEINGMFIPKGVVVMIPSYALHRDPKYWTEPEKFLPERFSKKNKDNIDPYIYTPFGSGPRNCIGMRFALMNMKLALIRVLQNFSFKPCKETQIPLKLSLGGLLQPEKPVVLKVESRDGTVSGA
T2 sequence (Q12809 whole entry): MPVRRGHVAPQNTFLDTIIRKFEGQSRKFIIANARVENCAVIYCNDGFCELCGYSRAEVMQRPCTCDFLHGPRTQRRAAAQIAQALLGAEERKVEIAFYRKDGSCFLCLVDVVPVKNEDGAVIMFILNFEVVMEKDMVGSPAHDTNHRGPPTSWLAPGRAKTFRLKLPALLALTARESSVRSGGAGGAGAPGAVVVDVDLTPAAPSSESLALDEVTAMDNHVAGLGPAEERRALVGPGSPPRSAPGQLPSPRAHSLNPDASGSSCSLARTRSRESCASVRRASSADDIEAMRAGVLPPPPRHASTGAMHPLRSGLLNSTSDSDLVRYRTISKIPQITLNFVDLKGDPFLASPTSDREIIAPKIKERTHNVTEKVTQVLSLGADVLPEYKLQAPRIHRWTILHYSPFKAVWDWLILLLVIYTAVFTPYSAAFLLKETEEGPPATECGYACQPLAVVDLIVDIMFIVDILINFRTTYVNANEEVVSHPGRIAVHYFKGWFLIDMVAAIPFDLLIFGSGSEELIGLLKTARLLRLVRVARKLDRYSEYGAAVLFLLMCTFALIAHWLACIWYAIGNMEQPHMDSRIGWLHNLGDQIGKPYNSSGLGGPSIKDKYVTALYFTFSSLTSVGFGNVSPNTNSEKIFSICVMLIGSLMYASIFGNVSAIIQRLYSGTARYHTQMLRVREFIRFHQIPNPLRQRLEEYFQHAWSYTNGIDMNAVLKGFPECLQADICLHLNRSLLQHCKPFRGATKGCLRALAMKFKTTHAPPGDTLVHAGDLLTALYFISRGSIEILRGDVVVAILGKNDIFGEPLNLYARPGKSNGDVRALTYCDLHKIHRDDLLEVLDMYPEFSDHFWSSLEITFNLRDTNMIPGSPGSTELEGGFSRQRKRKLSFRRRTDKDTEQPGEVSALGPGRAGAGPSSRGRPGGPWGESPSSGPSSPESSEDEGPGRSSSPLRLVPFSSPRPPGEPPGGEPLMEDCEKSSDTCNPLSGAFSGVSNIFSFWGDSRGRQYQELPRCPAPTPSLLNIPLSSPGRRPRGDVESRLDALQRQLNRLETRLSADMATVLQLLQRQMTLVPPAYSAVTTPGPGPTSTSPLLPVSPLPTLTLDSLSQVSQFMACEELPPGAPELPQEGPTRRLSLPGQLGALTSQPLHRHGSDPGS
T1 sequence (P56817 46-501): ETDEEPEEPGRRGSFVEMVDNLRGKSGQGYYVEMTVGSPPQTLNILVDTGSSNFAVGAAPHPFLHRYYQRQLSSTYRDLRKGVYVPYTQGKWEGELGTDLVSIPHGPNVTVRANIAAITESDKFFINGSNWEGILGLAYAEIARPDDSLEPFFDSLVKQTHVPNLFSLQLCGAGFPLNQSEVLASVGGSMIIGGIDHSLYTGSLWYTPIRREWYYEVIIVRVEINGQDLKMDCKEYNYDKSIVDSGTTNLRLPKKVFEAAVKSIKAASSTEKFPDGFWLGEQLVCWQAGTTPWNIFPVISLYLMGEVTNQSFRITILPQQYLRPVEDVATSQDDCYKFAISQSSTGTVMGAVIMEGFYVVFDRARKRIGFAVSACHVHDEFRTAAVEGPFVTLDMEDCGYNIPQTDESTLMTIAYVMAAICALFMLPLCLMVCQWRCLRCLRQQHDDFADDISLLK

Compound	IC50 (Recombinant human BACE1)	IC50 [1]	inhibition at 7 min, 5 µM (hERG channel)	IC50 shift (CYP3A4)	solubility at 4 h (Solubility test)
CS/C(N)=N\C1(c2cc(NC(=O)c3ccc(C#N)cn3)ccc2F)CC1 [Compound 1]	3670 nM	55 nM	63.8%	0 nM	–
CS/C(N)=N\Cc1cc(NC(=O)c2ccc(C#N)cn2)ccc1F [Compound 2]	–	100 nM	–	0 nM	–
CC#CCOc1cnc(C(=O)Nc2cccc(C/N=C(/N)SC)c2)cn1 [Compound 3]	130 nM	5 nM	67.6%	0 nM	–
CC#CCOc1cnc(C(=O)Nc2cccc(C/N=C(/N)SCc3ccccc3)c2)cn1 [Compound 4]	≤ 1000 nM	119 nM	–	1000 nM	–
C=CCS/C(N)=N\Cc1cccc(NC(=O)c2cnc(OCC#CC)cn2)c1 [Compound 5]	≤ 1000 nM	160 nM	–	-2000 nM	–
CC#CCOc1cnc(C(=O)Nc2cccc(C/N=C(/N)SCCc3ccccc3)c2)cn1 [Compound 6]	≤ 1000 nM	172 nM	–	-2000 nM	–
CC#CCOc1cnc(C(=O)Nc2cccc(C/N=C(/N)SCC)c2)cn1 [Compound 7]	1210 nM	82 nM	–	<-2000 nM	–
CC#CCOc1cnc(C(=O)Nc2cccc(C/N=C(/N)SCCC)c2)cn1 [Compound 8]	≤ 1000 nM	40 nM	–	-4000 nM	–
CC#CCOc1cnc(C(=O)Nc2cccc(C/N=C(/N)SCCCC)c2)cn1 [Compound 9]	≤ 1000 nM	61 nM	–	-5000 nM	–
CC#CCOc1cnc(C(=O)Nc2cccc(C/N=C(/N)SCc3ccccn3)c2)cn1.O=CO [Compound 11]	290 nM	524 nM	–	-2000 nM	–
CC#CCOc1cnc(C(=O)Nc2cccc(C/N=C(/N)SCc3ccncc3)c2)cn1.O=CO [Compound 12]	270 nM	36 nM	–	<-2000 nM	–
CC#CCOc1cnc(C(=O)Nc2ccc(F)c(C3(/N=C(/N)SC)CC3)c2)cn1 [Compound 15]	140 nM	4 nM	31.5%	<-3000 nM	–
CS/C(N)=N\Cc1cccc(NC(=O)c2cnc(C)cn2)c1 [Compound 18]	–	–	10.8%	0 nM	–
CS/C(N)=N\c1cccc2ccc(NC(=O)c3ccc(C#N)cn3)cc12 [Compound 28]	790 nM	193 nM	60.4%	1000 nM	> 40 µM
CS/C(N)=N\C1(c2cccc(NC(=O)c3cnc(C)cn3)c2)CCCC1 [Compound 30]	–	–	14.1%	0 nM	–
CS/C(N)=N\C1(c2cccc(NC(=O)c3ccc(C#N)cn3)c2)CCCC1 [Compound 31]	–	≤ 1000 nM	–	–	> 40 µM
CS/C(N)=N/C1CCc2ccc(NC(=O)c3ccc(C#N)cn3)cc21 (stereo not shown) [Compound 32]	–	260 nM	–	0 nM	–
CN(C)CCCO/C(N)=N/Cc1cccc(NC(=O)c2ccc(C#N)cn2)c1 [Compound 38]	–	≤ 1000 nM	8.4%	–	–
CO/C(N)=N\Cc1cc(NC(=O)c2cnc(C)cn2)ccc1F [Compound 40]	–	≤ 1000 nM	–	–	> 40 µM
CO/C(N)=N\C1(c2cccc(NC(=O)c3cnc(OC)cn3)c2)CC1 [Compound 45]	–	28 nM	2.5%	–	> 40 µM
